From patent US20250213614A1, “Modified RELA Protein for Inducing Interferon Expression and Engineered Immune Cells with Improved Interferon Expression” (Institut Curie, priority 2022, published 2025)

How the values were obtained:
Type in all cases: cell-based, human
CD4+ T cells = assay: IFN-I/III quantification (LEGENDplex) in CD4+ T cells, baseline or after STING stimulation
Description: (§1) Plasmapheresis blood pockets were obtained from healthy adult volunteers after informed consent from the EFS (Establishment of French blood collection). Peripheral blood mononuclear cells (PBMCs) were isolated using Ficoll-Paque Plus (GE-17144003) and left overnight at 4° C. in RPMI (Thermo fischer #61870-010) with 10% heat-decomplemented fetal bovine serum (FBS, Eurobio #CVFSVFO0-01). CD14+ cells were enriched by positive selection (Miltenyi #130-050-201), the CD14 negative fraction was subsequently used to isolate total CD4+ T cells by negative selection (Stem Cell #17952). CD14+ cells were cultured in RPMI containing 10% FBS, 5% Penicillin-Streptomycin (PS, Thermo Fisher #10378-016), 50 μg/ml Gentamicin (Thermo Fisher #15750-045) and 10 mM HEPES (Thermo Fisher #15630-056). CD14+ cells were differentiated ex vivo into MDDC by supplementing the culture media with 50 ng/ml IL-4 (Miltenyi #130-093-922) and 10 ng/ml GM-CSF (Miltenyi #130-093-867). MDDC were used for experiments 3 or 4 days following the start of the culture. CD14+ cells were differentiated ex vivo into macrophages by adding 50 ng/ml MCSF (Miltenyi #130-096-492) to the culture media containing RPMI with 1% PS, 5% FBS and 5% human serum (Sigma #H4522). MDM were used 7 days following culture. Freshly isolated CD4+ T cells were cultured in X-VIVO 15 (Lonza #BE02-060F) and activated using anti-CD3 and anti-CD28 Dynabeads (fisher scientific #10548353) at the ratio of 1:5 (bead:cell). 100 U/ml human IL-2 (Immunotools #11340027) was added to cultures 2 days following TCR stimulation and media with IL-2 was replenished every 48 hours. To assess proliferation, freshly isolated CD4+ T cells were stained with cell proliferation dye (thermo fischer #65-0840-85) prior to TCR stimulation.
(§2) CD14+ cells were plated at 1 million cells/ml and transduced with equal volumes of freshly harvested SIV-VLPs and pTRIP-SFFV vectors in the presence of 8 μg/ml protamine (Sigma #P4020). CD4+ T cells were transduced with lentivectors 24 hours post-TCR stimulation in 100 μl of cells (0.2 million cells) and 100 μl of freshly harvested lentivirus in the presence of 8 μg/ml protamine. T cells were spinoculated at 1200 g for 2 hours at 25° C. 0.5 million THP-1 cells in 500 μl media (RPMI 10% FBS 1% PS) were transduced with 500 μl freshly harvested lentivirus in the presence of 8 μg/ml protamine. 1 μg/ml Puromycin (Invivogen #ant-pr-1) was added 2 days post-transduction when cells were transduced with pLKO.1-puro plasmid.
For stimulation of STING by extracellular ligands, 2.5 μg of ADUS100 (invivogen #tlrl-nacda2r-01) or 2′3′-cGAMP (cGAMP, invivogen #tlrl-nacga23-02) was added to 100,000 cells in 100 μl media either on freshly isolated primary cells or 3-4 days post differentiation for MDDC and 3 days post-TCR stimulation for CD4+ T cells. Cells and supernatant were harvested 18-24 hours post stimulation. For delivery of STING ligands after permeabilization, T cells were used 3 or 4 days post TCR stimulation and MDDC were used 3-4 days following differentiation. 150,000 cells were plated in round bottom 96-well plate. Media was removed by centrifugation and 20 μl 2× permeabilization buffer (100 mM HEPES, 200 mM KCl, 6 mM MgCl2, 0.2 mM DTT, 170 mM Sucrose, 2 mM ATP, 2 mM GTP, 0.4% bovine serum albumin (BSA), 20 μg/ml digitonin) and 20 μl cGAMP (12 μg/ml) was added to cells. 18 to 20 hours following stimulation supernatants and cells were harvested. Cells were stained with a fixable viability dye (Invitrogen #65-0865-14) and acquired on a FACSVerse (BD). […]
Where indicated, cells were treated with 5-Azacytidine (5AZA, Sigma #A2385) 48 hours prior to cGAMP stimulation. Fresh 5AZA was added daily to cells, and media was replenished with 5AZA following cGAMP stimulation. 100 nM Trichostatin A (TSA) (sigma #T1952) was added to cells following cGAMP stimulation and left overnight. […]

MDDC = assay: IFN-I/III quantification (LEGENDplex) in MDDC after STING stimulation
Description: as §1, §2
For stimulation of STING by extracellular ligands, 2.5 μg of ADUS100 (invivogen #tlrl-nacda2r-01) or 2′3′-cGAMP (cGAMP, invivogen #tlrl-nacga23-02) was added to 100,000 cells in 100 μl media either on freshly isolated primary cells or 3-4 days post differentiation for MDDC and 3 days post-TCR stimulation for CD4+ T cells. Cells and supernatant were harvested 18-24 hours post stimulation. For delivery of STING ligands after permeabilization, T cells were used 3 or 4 days post TCR stimulation and MDDC were used 3-4 days following differentiation. 150,000 cells were plated in round bottom 96-well plate. Media was removed by centrifugation and 20 μl 2× permeabilization buffer (100 mM HEPES, 200 mM KCl, 6 mM MgCl2, 0.2 mM DTT, 170 mM Sucrose, 2 mM ATP, 2 mM GTP, 0.4% bovine serum albumin (BSA), 20 μg/ml digitonin) and 20 μl cGAMP (12 μg/ml) was added to cells. 18 to 20 hours following stimulation supernatants and cells were harvested. Cells were stained with a fixable viability dye (Invitrogen #65-0865-14) and acquired on a FACSVerse (BD).
For experiments with conditioned media, CD4+ T cell- and MDDC-conditioned media refer to […] filtered conditioned media from cultures of activated CD4+ T cell and MDDC, respectively. CD4+ T cells were pretreated with 100 μl of MDDC-conditioned media or of fresh MDDC culture media, 24 hours prior to cGAMP stimulation. […]

cGAS = assay: cGAMP quantification by ELISA in CD4+ T cells; settings: CD4+ T cells expressing RELA K5R or IRF3, FIG. 5B
Description: For cGAS stimulation, 2 μg of control GFP plasmid DNA (provided in the kit) was nucelofected in 2 million T cells 72 hours post TCR stimulation (Lonza #VPA-1002) using the programme T020 (Lonza #Nucleofector 2b). Cells were harvested at 4 hours and 24 hours after nucleofection for analysis.
Cell pellets were stored at −80° C. until extraction. Frozen pellets were fixed in 80% cold methanol and subjected to 5 freeze-thaw cycles in liquid nitrogen. Samples were then centrifuged at 16,000 g for 20 minutes at 4° C. The supernatants were further subjected to drying in Savant DNA Speed Vac DNA 110 at 65° C. for 2 hours. The pellets were resuspended in 100 μl RNase- and DNase-free water and cGAMP was quantified by ELISA as per manufacturers protocol (Interchim #501700). cGAMP quantity was normalized to cell numbers and represented as pg/million cells.

For “RELA K5R: RELA mutant converting five lysine residues (K122, K123, K310, K314, K315) to arginine, expressed from lentivector”, the “expression of IFNλ1 and IRF7” value (CD4+ T cells; RELA K5R expressed in CD4+ T cells, no stimulation) was “sufficient to induce”, the “IFNλ1 after cGAMP stimulation” value (CD4+ T cells; lentivector overexpression in CD4+ T cells, FIG. 2B, 2D, 2F) was “augmented in response to cGAMP” and the “IFNα2 in response to cGAMP” value (CD4+ T cells; lentivector overexpression in CD4+ T cells, FIG. 2D, 2F) was “detectable”. The “baseline IFNλ1 expression” value (CD4+ T cells; lentivector overexpression in CD4+ T cells, no cGAMP, FIG. 2D, 2F) was “increased baseline IFNλ1 expression”, the “increase in IFNλ1 at baseline” value (MDDC; MDDC, monocyte-derived macrophages (MDM) or THP-1 cells, data not shown) was “not observed” and the “IFN-I/III response to cGAMP compared to the control condition” value (MDDC; lentivector overexpression in MDDC, cGAMP 6 μg/ml, FIG. 2D) was “remained unchanged”. The “cellular cGAMP” value (cGAS) was “no significant increase”.

B1: IRF3: interferon Regulatory Factor 3, over-expressed from lentivector (protein, UniProt Q14653 1-427, looked up)
Interferon regulatory factor 3: MGTPKPRILPWLVSQLDLGQLEGVAWVNKSRTRFRIPWKHGLRQDAQQEDFGIFQAWAEATGAYVPGRDKPDLPTWKRNFRSALNRKEGLRLAEDRSKDPHDPHKIYEFVNSGVGDFSQPDTSPDTNGGGSTSDTQEDILDELLGNMVLAPLPDPGPPSLAVAPEPCPQPLRSPSLDNPTPFPNLGPSENPLKRLLVPGEEWEFEVTAFYRGRQVFQQTISCPEGLRLVGSEVGDRTLPGWPVTLPDPGMSLTDRGVMSYVRHVLSCLGGGLALWRAGQWLWAQRLGHCHTYWAVSEELLPNSGHGPDGEVPKDKEGGVFDLGPFIVDLITFTEGSGRSPRYALWFCVGESWPQDQPWTKRLVMVKVVPTCLRALVEMARVGGASSLENTVDLHISNSHPLSLTSDQYKAYLQDLVEGMDFQGPGES
B1 was tested, and the “IFNα2 response to cGAMP” value (CD4+ T cells; IRF3 over-expression alone in CD4+ T cells, FIG. 3B) was “only to a small extent”, the IFNβ (CD4+ T cells; IRF3 over-expression alone in CD4+ T cells, cGAMP, FIG. 3B) was “remained undetectable” and the “augmentation of cGAMP-mediated IFNλ1, IFNα2 and IFNβ production” value (MDDC; IRF3 over-expression in MDDC, cGAMP 6 μg/ml, FIG. 3B) was 10 fold. The “cellular cGAMP” value (cGAS) was “no significant increase”.
